The target of experiment [1] is T1, reuptake of dopamine (DA) in synaptosomes (Rattus norvegicus, UniProt P23977).
T1 construct: in synaptosomes as described in WO 97/16451; from tissue
Briefly: In vitro inhibition of dopamine reuptake in synaptosomes. It counts as biochemical. The protocol: (§1) A number of compounds were tested for their ability to Inhibit the reuptake of the monoamine neurotransmitters dopamine (DA) noradrenaline(NA) and serotonin (5-HT) in synaptosomes as described in WO 97/16451.
(§2) The test values are given as IC50 (the concentration (μM) of the test substance which inhibits the specific binding of ^3H-DA, ^3H-NA, or 3H-5-HT by 50%).

The target in experiment [2] is T2, reuptake of serotonin (5-HT) in synaptosomes (Rattus norvegicus, UniProt P31652).
T2 construct: in synaptosomes as described in WO 97/16451; from tissue
The experiment is described as follows: In vitro inhibition of serotonin reuptake in synaptosomes. It is filed as biochemical. The protocol: as §1, §2

SMILES strings stand for the structures. Where a name gives a salt, the structure may show the parent alone.

T2 sequence (P31652 whole entry): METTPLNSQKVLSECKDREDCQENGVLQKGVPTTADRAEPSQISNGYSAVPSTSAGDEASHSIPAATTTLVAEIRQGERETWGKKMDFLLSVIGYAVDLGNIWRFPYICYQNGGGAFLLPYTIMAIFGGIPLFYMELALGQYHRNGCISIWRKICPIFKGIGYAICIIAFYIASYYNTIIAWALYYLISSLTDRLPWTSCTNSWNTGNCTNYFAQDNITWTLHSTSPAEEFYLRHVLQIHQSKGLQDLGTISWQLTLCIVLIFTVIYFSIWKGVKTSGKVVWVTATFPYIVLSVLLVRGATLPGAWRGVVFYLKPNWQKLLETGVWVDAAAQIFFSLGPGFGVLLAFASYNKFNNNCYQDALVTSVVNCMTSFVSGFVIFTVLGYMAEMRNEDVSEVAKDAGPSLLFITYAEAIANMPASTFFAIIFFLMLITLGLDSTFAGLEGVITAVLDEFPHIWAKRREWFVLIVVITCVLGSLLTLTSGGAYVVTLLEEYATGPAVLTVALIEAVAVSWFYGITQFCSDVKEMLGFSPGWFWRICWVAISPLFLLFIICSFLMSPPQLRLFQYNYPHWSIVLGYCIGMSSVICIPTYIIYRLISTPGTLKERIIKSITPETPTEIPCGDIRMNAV
T1 sequence (P23977 whole entry): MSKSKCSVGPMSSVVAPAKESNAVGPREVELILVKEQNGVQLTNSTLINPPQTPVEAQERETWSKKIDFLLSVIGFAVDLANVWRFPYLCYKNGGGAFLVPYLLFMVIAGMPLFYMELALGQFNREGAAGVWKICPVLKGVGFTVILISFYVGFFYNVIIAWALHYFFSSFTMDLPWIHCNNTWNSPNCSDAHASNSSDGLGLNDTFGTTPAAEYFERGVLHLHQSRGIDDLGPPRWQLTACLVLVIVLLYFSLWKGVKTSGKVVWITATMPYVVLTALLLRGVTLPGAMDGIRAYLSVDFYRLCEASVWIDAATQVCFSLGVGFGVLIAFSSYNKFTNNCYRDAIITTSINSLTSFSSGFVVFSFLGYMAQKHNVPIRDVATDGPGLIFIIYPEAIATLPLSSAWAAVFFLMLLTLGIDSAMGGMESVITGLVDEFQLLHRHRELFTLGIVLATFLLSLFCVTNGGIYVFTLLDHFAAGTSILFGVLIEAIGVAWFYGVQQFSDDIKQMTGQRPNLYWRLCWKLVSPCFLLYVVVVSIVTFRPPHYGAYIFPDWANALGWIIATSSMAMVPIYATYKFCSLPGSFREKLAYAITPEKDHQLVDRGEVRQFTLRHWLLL

In the case of `CN1C2CCC1[C@H](COc1cccc(Cl)c1Cl)[C@@H](c1cccc(Cl)c1)C2` (stereo partly drawn) [1st compound of method D, (2R,3S)-2-(2,3-Dichlorophenoxymethyl)-8-methyl-3-(3-chlorophenyl)-8-aza-bicyclo[3.2.1]octane fumaric acid salt], the values for the IC50 in experiment [1] and in experiment [2] were 0.062 µM and 0.00072 µM, respectively.

As for `Clc1cccc(C2CC3CCC(N3)C2COc2cccc(Cl)c2Cl)c1` [1st compound of method E, (2R,3S)-2-(2,3-Dichlorophenoxymethyl)-8-H-3-(3-chlorophenyl)-8-aza-bicyclo[3.2.1]octane fumaric acid salt], the IC50 in experiment [1] turned out to be 0.1 µM; in experiment [2], 0.0062 µM.

In the case of `Clc1cccc(C2CC3CCC(N3)C2COc2cccc3ccccc23)c1` [2nd compound of method E, (2R,3S)-2-(1-naphthyloxymethyl)-8-H-3-(3-chlorophenyl)-8-aza-bicyclo[3.2.1]octane fumaric acid salt], the IC50 came to 0.088 µM in experiment [1] and 0.013 µM in experiment [2].

The values are drawn from patent US7250425B2, “8-aza-bicyclo[3.2.1]octane derivatives and their use as monoamine neurotransmitter re-uptake inhibitors” (priority 2003, dated 2007).
